Columns and labels:
[1] = test system: Mycobacterium tuberculosis; parameters: species or system C57BL6 mice; conditions: mouse, in vivo
[2] = test system: Mycobacterium tuberculosis
[3] = test system: tuberculosis; conditions: intranasal; Antonelli et al., J. Clin. Investigation 2010; cited from earlier work

poly-ICLC
colony forming units (CFU) in lungs [1]: approximately 8.9 log^10 CFU | mice that survived past day 53 post-infection ([2]; M. tuberculosis-infected B6 mice treated with poly-ICLC alone, five mice): None | mean weight as % of starting weight ([2]; M. tuberculosis-infected B6 mice, after 31 days, treated with intranasal poly-ICLC twice weekly): approximately 74% | effect on tuberculosis in mice [3]: exacerbate tuberculosis

CC(c1cc2ccccc2s1)N(O)C(N)=O (centres unmarked) [zileuton]
colony forming units (CFU) in lungs [1]: approximately 7.6 log^10 CFU
